For 29 compounds, Ki results are on record in US20250026765A1, “SPIROHETEROCYCLE DERIVATIVE HAVING SEROTONIN RECEPTOR BINDING ACTIVITY” (Shionogi & Co., Ltd., priority 2021, published 2025).

Test [1] deals with human recombinant 5-HT2A receptor (Homo sapiens (Human), UniProt P28223). The test can be described thus: 5-HT2A receptor binding inhibition test ([3H]-Ketanserin). As to conditions: Jump-In HEK cell membrane, 25° C. 1.5 hours. On the procedure: Test Example 1: 5-HT2A Receptor Binding Inhibition Test
(§1) (Each Experimental Condition)
Cell membrane: 15 μg of Jump-In HEK cell membrane (expressing human recombinant 5-HT2A receptor) per well
(§2) Assay buffer: Tris-HCl 50 mmol/L (pH 7.4) containing NaCl 120 mmol/L, MgCl2·6H2O 1 mmol/L, KCl 5 mmol/L, 0.1% BSA and CaCl2 2 mmol/L
Radioactive ligand: [^3H]-Ketanserin with a final concentration of around Kd value calculated by the following method
Non-specific ligand: Serotonin HCl with a final concentration of 500 μmol/L
(§3) The Kd value is calculated when the lot of cell membrane is changed. In advance, 0.5 μL of a 1 mmol/L compound for non-specific binding calculation dissolved in DMSO or DMSO is dispensed into a microplate, and the cell membrane is diluted with an Assay buffer. The radioactive ligand solution is serially diluted and the count is confirmed with a liquid scintillator. Assay buffer containing diluted cell membrane is dispensed into a microplate at 50 μL/well. Then, the radioactive ligand solution is dispensed into a microplate at 50 μL/well, and the plate is sealed. It is allowed to stand at room temperature (25° C.) for 1.5 hours. During this period, 50 mmol/L Tris-HCl (pH 7.4) is dispensed into a GF/B UniFilter plate at 50 μL/well and allowed to stand at 4° C. for 1 hour or longer. After that, filtration is performed with Cell harvester (PerkinElmer). The radioactive ligand solution is dispensed into an empty well of the GF/B UniFilter plate at 10 μL/well. After the GF/B UniFilter plate is dried at room temperature, MicroScinti 20 is dispensed into the GF/B UniFilter plate at 50 μL/well to seal the plate. The GF/B UniFilter plate is allowed to stand overnight at room temperature. The radioactivity of [^3H]-Ketanserin bound to the 5-HT2A receptor is measured using Microbeta2 (PerkinElmer) at a measurement time of 1 min/well. The Saturation curve is drawn from the measured value, and the Kd value is calculated from the slope of the Scatchard Plot.
(§4) (Binding Test of the Compound According to the Present Invention)
In advance, 0.5 μL of the compound solution dissolved in DMSO is dispensed into a microplate, and the cell membrane and the hot ligand are diluted with Assay buffer, respectively. Then, the Assay buffer containing the diluted cell membrane is dispensed into a microplate at 50 μL/well. Then, the radioactive ligand solution is dispensed into a microplate at 50 μL/well, and the plate is sealed. Then, it is allowed to stand at room temperature (25° C.) for 1.5 hours. During this period, 50 mmol/L Tris-HCl (pH 7.4) is dispensed into a GF/B UniFilter plate at 50 μL/well and allowed to stand at 4° C. for 1 hour or longer. After that, filtration is performed with Cell harvester (PerkinElmer). After the GF/B UniFilter plate is dried at room temperature, MicroScinti 20 is dispensed into the GF/B UniFilter plate at 50 μL/well to seal the plate. The GF/B UniFilter plate is allowed to stand overnight at room temperature. The radioactivity of [^3H]-Ketanserin bound to the 5-HT2A receptor is measured using Microbeta2 (PerkinElmer) at a measurement time of 1 min/well. The non-specific binding is calculated from the radioactivity of [^3H]-Ketanserin in the presence of 500 μmol/L Serotonin HCl which is the unlabeled ligand, and the total binding is calculated from the radioactivity of [^3H]-Ketanserin in the absence of the compound according to the present invention (Vehicle). Finally, the Ki value is calculated from the dose-response curve.
(§5) (The binding activity of the compound according to the present invention is calculated from the following binding inhibition rate (%).)
(§6) [formula] • a; mean cpm of non-specific binding • b; average cpm of total binding • c; cpm in the presence of the test compound

Test [2] concerns the target human recombinant 5-HT2C receptor (Homo sapiens (Human), UniProt P28335). Put plainly: 5-HT2C receptor binding inhibition test ([3H]-Mesulergine). As to conditions: Jump-In HEK cell membrane, 37° C. 2 hours. On the procedure: Test Example 2: 5-HT2C Receptor Binding Inhibition Test
as §1
Cell membrane: 0.5 μg of Jump-In HEK cell membrane (expressing human recombinant 5-HT2C receptor) per well
as §2
Radioactive ligand: [^3H]-Mesulergine with a final concentration of around Kd value calculated by the following method
Non-specific ligand: Serotonin HCl with a final concentration of […]
as §3, with “37° C.” for “room temperature (25° C.)”, “2” for “1.5”, “[^3H]-Mesulergine” for “[^3H]-Ketanserin”, “5-HT2C” for “5-HT2A”
as §4
In advance, 0.5 μL of the compound solution dissolved in DMSO is dispensed into a microplate, and the cell membrane and the hot ligand are diluted with Assay buffer, respectively. Then, the Assay buffer containing the diluted cell membrane is dispensed into a microplate at 50 μL/well. Then, the radioactive ligand solution is dispensed into a microplate at 50 μL/well, and the plate is sealed. Then, it is allowed to stand at 37° C. for 2 hours. During this period, 50 mmol/L Tris-HCl (pH 7.4) is dispensed into a GF/B UniFilter plate at 50 μL/well and allowed to stand at 4° C. for 1 hour or longer. After that, filtration is performed with Cell harvester (PerkinElmer). After the GF/B UniFilter plate is dried at room temperature, MicroScinti 20 is dispensed into the GF/B UniFilter plate at 50 μL/well, and the plate is sealed. The GF/B UniFilter plate is allowed to stand overnight at room temperature. The radioactivity of [^3H]-Mesulergine bound to the 5-HT2C receptor is measured using Microbeta2 (PerkinElmer) at a measurement time of 1 min/well. The non-specific binding is calculated from the radioactivity of […] in the presence of 500 μmol/L Serotonin HCl which is the unlabeled ligand, and the total binding is calculated from the radioactivity of [^3H]-Mesulergine in the absence of the compound according to the present invention (Vehicle). Finally, the Ki value is calculated from the dose-response curve.
as §5, §6

[3] abbreviates: read-out: human serotonin 5-HT2A receptor binding activity Ki.
[4] abbreviates: read-out: human serotonin 5-HT2C receptor binding activity Ki.

Where two headings read alike, the source gives them in different places.

Chain of human recombinant 5-HT2A receptor (P28223 whole entry): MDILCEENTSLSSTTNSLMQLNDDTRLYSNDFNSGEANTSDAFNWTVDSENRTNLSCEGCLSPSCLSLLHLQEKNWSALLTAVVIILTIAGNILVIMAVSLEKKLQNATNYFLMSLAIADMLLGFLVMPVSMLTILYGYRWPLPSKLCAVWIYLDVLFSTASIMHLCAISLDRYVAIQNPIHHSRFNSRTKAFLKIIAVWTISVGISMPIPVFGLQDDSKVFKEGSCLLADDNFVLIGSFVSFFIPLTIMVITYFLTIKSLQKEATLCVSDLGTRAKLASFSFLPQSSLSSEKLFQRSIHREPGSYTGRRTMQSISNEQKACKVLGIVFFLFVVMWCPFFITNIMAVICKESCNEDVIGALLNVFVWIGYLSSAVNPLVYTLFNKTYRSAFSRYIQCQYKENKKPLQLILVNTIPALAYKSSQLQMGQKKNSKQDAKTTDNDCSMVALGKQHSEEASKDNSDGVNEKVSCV
Chain of human recombinant 5-HT2C receptor (P28335 33-458): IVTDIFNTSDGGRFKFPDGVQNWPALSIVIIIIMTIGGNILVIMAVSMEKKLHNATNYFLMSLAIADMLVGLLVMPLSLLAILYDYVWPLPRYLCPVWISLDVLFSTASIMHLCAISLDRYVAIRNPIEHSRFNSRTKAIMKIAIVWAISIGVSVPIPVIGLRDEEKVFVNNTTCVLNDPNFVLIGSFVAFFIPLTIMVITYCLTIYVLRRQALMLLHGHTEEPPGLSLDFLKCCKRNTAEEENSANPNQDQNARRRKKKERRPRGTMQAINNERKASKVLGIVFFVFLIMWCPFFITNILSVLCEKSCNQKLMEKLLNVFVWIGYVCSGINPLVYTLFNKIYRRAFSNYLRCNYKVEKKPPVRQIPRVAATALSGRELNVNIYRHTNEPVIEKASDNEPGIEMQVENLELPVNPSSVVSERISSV

`Cc1nc(CN(Cc2cn3ccccc3n2)C2=NOC3(CCN(C)CC3)N2)co1` [Compound I-091]: the Ki is 10 to 100 nM in test [1] (read-out: h-5-HT2A Ki) and 100 to 500 nM in test [2] (read-out: h-5-HT2C Ki).

As for `COc1ccc(CN(Cc2coc(C)n2)C2=NOC3(CCN(C)CC3)N2)nc1` [Compound I-121], the Ki in test [1] (read-out: h-5-HT2A Ki) and in test [2] (read-out: h-5-HT2C Ki) was 10 to 100 nM throughout.

Regarding `Cc1nc(CN(Cc2nc3ccccc3o2)C2=NOC3(CCN(C)CC3)N2)co1` [Compound I-094], the Ki in test [1] (read-out: h-5-HT2A Ki) and in test [2] (read-out: h-5-HT2C Ki) was 10 to 100 nM in each case.

Take `CN1CCC2(CC1)NC(N(Cc1ccc(OCC(F)(F)F)cc1)Cc1coc(C3CC3)n1)=NO2` [Compound I-086]: the Ki in test [1] (read-out: h-5-HT2A Ki) and in test [2] (read-out: h-5-HT2C Ki) was below 10 nM throughout.

For `CCCCc1ccc(CN(Cc2cnn(C)n2)C2=NOC3(CCN(C)CC3)N2)cc1` [Compound I-133], the Ki in test [1] (read-out: h-5-HT2A Ki) and in test [2] (read-out: h-5-HT2C Ki) was below 10 nM each time.

For the compound `Cc1nc(CN(Cc2ccc(OCC(C)C)cc2)C2=NC(=O)C3(CCN(C)CC3)N2)co1` [Compound I-039], the figures for the Ki in test [1] (read-out: h-5-HT2A Ki) and in test [2] (read-out: h-5-HT2C Ki) were 10 to 100 nM and below 10 nM, respectively.

On to `Cc1cccc(CN(Cc2ccc(OCC(C)C)cc2)C2=NOC3(CCN(C)CC3)N2)n1` [Compound I-013], for which the Ki in test [1] (read-out: h-5-HT2A Ki) and in test [2] (read-out: h-5-HT2C Ki) was 10 to 100 nM each time.

`Cc1nc(CN(Cc2ccc(OCC(C)C)cc2)C2=NC3(CCNCC3)ON2C)co1` [Compound I-051]: the Ki in test [1] (read-out: h-5-HT2A Ki) and in test [2] (read-out: h-5-HT2C Ki) was 100 to 500 nM throughout.

For the compound `Cc1nc(CN(Cc2ccc(OCC(C)C)cc2)C2=NOC3(CCN(C)CC3)N2)no1` [Compound I-018], the results for the Ki in test [1] (read-out: h-5-HT2A Ki) and in test [2] (read-out: h-5-HT2C Ki) were 10 to 100 nM and below 10 nM, respectively.

Turning to `CC(C)COc1ccc(CC2=NOC3(CCNCC3)N2Cc2ccc(F)cc2O)cc1` [Compound I-003], the values for the Ki in test [1] (setting [3]) and in test [2] (setting [4]) were 19.8 nM and 4.11 nM, respectively.

As for `CC(C)COc1ccc(CN(Cc2ccc(F)cn2)C2=NOC3(CCN(C)CC3)N2)cc1` [Compound I-007], the Ki was below 10 nM in test [1] (read-out: h-5-HT2A Ki) and 10 to 100 nM in test [2] (read-out: h-5-HT2C Ki).

Consider `CN1CCC2(ON=C(Cc3ccc(OC4CC4)cc3)N2Cc2ccn(C)n2)C2(CC2)C1` (racemic) [Compound I-041], for which the Ki in test [1] (read-out: h-5-HT2A Ki) and in test [2] (read-out: h-5-HT2C Ki) was below 10 nM in each case.

For the compound `CC(C)COc1ccc(CC2=NOC3(CCN(C)CC3)N2Cc2ccc(F)cc2O)cc1` [Compound I-004], the figures for the Ki in test [1] (read-out: h-5-HT2A Ki) and in test [2] (read-out: h-5-HT2C Ki) were below 10 nM and 10 to 100 nM, respectively.

On to `Cc1nc(CN(Cc2ccc(OCC(C)C)cc2)C2=NC3(CCN(C)CC3)ON2C)co1` [Compound I-052], for which the Ki in test [1] (read-out: h-5-HT2A Ki) and in test [2] (read-out: h-5-HT2C Ki) was 100 to 500 nM throughout.

In the case of `CC(C)COc1ccc(CN(Cc2cnn(C)n2)C2=NOC3(CCN(C)CC3)N2)cc1F` [Compound I-107], the Ki in test [1] (read-out: h-5-HT2A Ki) and in test [2] (read-out: h-5-HT2C Ki) was below 10 nM each time.

As for `CCCCOc1ccc(CN(Cc2cnn(C)n2)C2=NOC3(CCN(C)CC3)N2)cc1F` [Compound I-111], the Ki in test [1] (read-out: h-5-HT2A Ki) and in test [2] (read-out: h-5-HT2C Ki) was below 10 nM each time.

Regarding `Cc1ccc(CN(Cc2ccc(OCC(C)C)cc2)C2=NOC3(CCN(C)CC3)N2)cn1` [Compound I-081], the results for the Ki in test [1] (read-out: h-5-HT2A Ki) and in test [2] (read-out: h-5-HT2C Ki) were below 10 nM and 100 to 500 nM, respectively.

Take `Cc1coc(CN(Cc2ccc(OCC(C)C)cc2)C2=NOC3(CCN(C)CC3)N2)n1` [Compound I-054]: the Ki was below 10 nM in test [1] (read-out: h-5-HT2A Ki) and 10 to 100 nM in test [2] (read-out: h-5-HT2C Ki).

For `Cc1nc(CN(Cc2ccc(OCC(F)(F)C(F)F)cc2)C2=NOC3(CCN(C)CC3)N2)co1` [Compound I-064], the inhibitory constant (Ki) in test [1] (read-out: h-5-HT2A Ki) and in test [2] (read-out: h-5-HT2C Ki) was below 10 nM throughout.

For `Cc1cc(CN(Cc2ccc(OCC(C)C)cc2)C2=NC(=O)C3(CCN(C)CC3)N2)nn1C` [Compound I-058], the Ki in test [1] (read-out: h-5-HT2A Ki) is 10 to 100 nM; in test [2] (read-out: h-5-HT2C Ki), 100 to 500 nM.

On to `Cc1nc(CN(Cc2ccc(OCC(C)C)cc2)C2=NOC3(CCN(C)CC3)N2)co1` [Compound I-011], for which the Ki in test [1] (setting [3]) turned out to be 1.22 nM; in test [2] (setting [4]), 0.585 nM.

For the compound `Cc1nc(CN(Cc2cc3ccccc3s2)C2=NOC3(CCN(C)CC3)N2)co1` [Compound I-123], the Ki in test [1] (read-out: h-5-HT2A Ki) and in test [2] (read-out: h-5-HT2C Ki) was below 10 nM each time.

On to `CC(C)COc1ccc(CN(Cc2cocn2)C2=NOC3(CCN(C)CC3)N2)cc1` [Compound I-031], for which the inhibition constant Ki in test [1] (read-out: h-5-HT2A Ki) and in test [2] (read-out: h-5-HT2C Ki) was 10 to 100 nM in each case.

For `CN1CCC2(CC1)NC(N(Cc1cnn(C)n1)Cc1ccc(OCC(F)(F)C(F)(F)F)cc1F)=NO2` [Compound I-103], the Ki in test [1] (read-out: h-5-HT2A Ki) and in test [2] (read-out: h-5-HT2C Ki) was below 10 nM throughout.

Regarding `CC(C)CNc1ccc(CN(Cc2ccn(C)n2)C2=NOC3(CCN(C)CC3)N2)cc1` [Compound I-023], the inhibition constant Ki in test [1] (read-out: h-5-HT2A Ki) and in test [2] (read-out: h-5-HT2C Ki) was 10 to 100 nM in each case.

Turning to `CN1CCC2(CC1)NC(N(CC(=O)Nc1ccc(Cl)cc1)Cc1ccn(C)n1)=NO2` [Compound I-056], in test [1] (read-out: h-5-HT2A Ki), the Ki fell in the range of 100 to 500 nM.

For the compound `Cc1ccc(CN(Cc2ccc(OCC(C)C)cc2)C2=NC(=O)C3(CCN(C)CC3)N2)cn1` [Compound I-059], the Ki in test [1] (read-out: h-5-HT2A Ki) was in the range of 10 to 100 nM.

With `CC(C)COc1ccc(CN(Cc2ccc(F)cc2)C2=NOC3(CCN(C)CC3)N2)cc1` [Compound I-060], the Ki in test [2] (read-out: h-5-HT2C Ki) lay in the range of 10 to 100 nM.

For `COc1ccc(CNC2=NOC3(CCN(C)CC3)N2Cc2ccc(F)cc2)cc1` [Compound I-006], the Ki in test [1] (read-out: h-5-HT2A Ki) lay in the range of 100 to 500 nM.

The Ki is a dissociation constant, usually derived from enzyme kinetics or from competition with a known ligand.
